What was measured:
Format in all cases: cell-based
[1] = tested on: A549 (human lung carcinoma) cell line; experiment: In vitro cytotoxicity, MTT assay, A549; conditions: 24 h incubation with complex, read-out: IC50 values against A549 cancer cell line
Description: (§1) The in vitro cytotoxicity tests were carried out for the gold(I) precursor, labeled as complex 0 and the three synthesized complexes labeled as complex 1, 2 and 3 and compared with cisplatin (standard classical anticancer drug) against three human cancer cell lines, HCT15, HeLa and A549 using MTT assay. The dose dependent cytotoxic effect was obtained by the stipulated increase in concentrations of cisplatin and gold complexes 0-3 against the fixed number of human cancer cells. The IC50 concentration of cisplatin and complexes 0-3 for different human cancer cell lines was obtained from a curve between compound concentration and percentage viability of cells (FIGS. 5-10, Table 6).
(§2) In phase contrast micrographs, a decreasing cell density and deformed cellular morphology could be observed with increasing concentration of complexes 0-3 (FIGS. 11-13). […] The IC50 concentrations of gold complexes were calculated from a separate curve between complex concentration and % viability of cells plotted in Microsoft Excel 2007 (graphs not shown) using MTT assay data and explained by logarithmic regression equations (equations not shown).
(§3) The metal precursor (complex 0) and the three synthesized compounds 1-3 were evaluated for their in vitro cytotoxic activity against HCT15 (human cancer), HeLa (human cervical cancer) and A549 (human lung carcinoma) cell lines. […]

[2] = tested on: HeLa (human cervical cancer) cell line; experiment: In vitro cytotoxicity, MTT assay, HeLa; conditions: 24 h incubation with complex, read-out: IC50 values against HeLa cancer cell line
Description: as §1, §2, §3

[3] = tested on: HCT15 (human cancer) cell line; experiment: In vitro cytotoxicity, MTT assay, HCT15; conditions: for IC50: MTT assay, 24 h incubation with complex, read-out: IC50 values against HCT15 cancer cell line; for IC50 against HCT15 compared with cisplatin: in words
Description: as §1
In phase contrast micrographs, a decreasing cell density and deformed cellular morphology could be observed with increasing concentration of complexes 0-3 (FIGS. 11-13). The dose dependent decrease in cell density was further supported by assessment of decreasing percent cell viability in MTT assay (FIGS. 5-10). The IC50 concentrations of gold complexes were calculated from a separate curve between complex concentration and % viability of cells plotted in Microsoft Excel 2007 (graphs not shown) using MTT assay data and explained by logarithmic regression equations (equations not shown).
The metal precursor (complex 0) and the three synthesized compounds 1-3 were evaluated for their in vitro cytotoxic activity against HCT15 (human cancer), HeLa (human cervical cancer) and A549 (human lung carcinoma) cell lines. The cells were seeded at 4×10^3 cells/well in 100 μL DMEM (Dulbecco's Modified Eagle's Medium) containing 10%. FBS (Fetal Bovine Serum) in 96-wells tissue culture plate and incubated for 72 h at 37° C., 5% CO2 in air and 90% relative humidity in CO2 incubator. After incubation, 100 μL of 50, 25, 12.5 and 6.25 μg/mL solutions of complexes (0-3), prepared in DMEM, were added to cells and the cultures were incubated for 24 h. The medium of wells was discarded and 100 μL DMEM containing MTT (3-(4,5-dimethylthiazol-2-yl)-2,5-diphenyltetrazolium bromide) (5 mg/mL) was added to the wells and incubated in CO2 incubator at 37° C. in dark for 4 h. After incubation, a purple colored formazan (artificial chromogenic dye, product of the reduction of water insoluble tetrazolium salts e.g., MMT by dehydrogenases and reductases) in the cells is produced and appeared as dark crystals in the bottom of the wells. The medium of culture was discarded from each well carefully to avoid disruption of monolayer and 100 μl of dimethyl sulfoxide (DMSO) was added in each well. […] The absorbance of the 96-wells plate was taken at 570 nm with Labsystems Multiskan EX-Enzyme-linked immunosorbent assay (EX-ELISA) reader against a reagent blank.

1,3-Bis(2,6-di-isopropylphenyl)imidazol-2-ylidenegold(I)chloride [Complex 0]
IC50 [1]: 180 µM
IC50 [2]: 172 µM
IC50 [3]: 122 µM

N.N.[Cl][Pt][Cl] [Cisplatin, cisplatin]
IC50 [3]: 29.5 µM

CCN(CC)C(=S)[S][Au][CH]1N(c2c(C(C)C)cccc2C(C)C)C=CN1c1c(C(C)C)cccc1C(C)C [Complex 2, [Au(Ipr)(S2CN(C2H5)2)]]
IC50 against HCT15 compared with cisplatin [3]: moderate potency but better than cisplatin

CC(C)c1cccc(C(C)C)c1N1C=CN(c2c(C(C)C)cccc2C(C)C)[CH]1[Au][S]C(=S)N(Cc1ccccc1)Cc1ccccc1 [Complex 3, [Au(Ipr)(S2CN(C7H7)2)]]
IC50 against HCT15 compared with cisplatin [3]: moderate potency but better than cisplatin

Source: patent US9573967B2, “N-heterocyclic carbene gold complexes with anticancer properties and methods of use thereof” (KING FAHD UNIVERSITY OF PETROLEUM AND MINERALS, priority 2015, dated 2017)
